Source: ChEMBL document CHEMBL4725253, “Discovery of quinoline-based irreversible BTK inhibitors” (Bioorg Med Chem Lett, 2020)

Experiments:
[1] = target: T1, Tyrosine-protein kinase BTK (Homo sapiens, UniProt Q06187); experiment: Inhibition of human recombinant full length N-terminal His6-tagged BTK expressed in baculovirus infected Sf9 cells using fluorescein labeled Blk/Lyntide substrate preincubated with enzyme for 60 mins followed by further incubation with substrate and ATP for 120 mins by IMAP assay
[2] = Inhibition of anti-human alphaIgM-stimulated MIP1beta production in human Ramos B cells preincubated for 1 hr followed by anti-human IgM stimulation for 6 hrs by ELISA; format: functional, cell-based
[3] = target: Epidermal growth factor receptor (Homo sapiens, UniProt P00533); experiment: Inhibition of EGFR (unknown origin) expressed in baculovirus system using fluorescein labeled PDGFR-tide substrate peptide preincubated for 60 mins followed by ATP addition and measured after 60 mins by IMAP assay
[4] = In vivo inhibition of CD69 expression in po dosed mouse; format: functional
[5] = target: Tyrosine-protein kinase Blk (Homo sapiens, UniProt P51451); experiment: Inhibition of recombinant full length human His-tagged BLK cytoplasmic domain expressed in baculovirus expression system using tyrosine-1 peptide as substrate preincubated for 1 hr in presence of ATP by Z'-LYTE assay
[6] = Inhibition of goat anti-human IgM F(ab')-stimulated CD69 cell surface expression in human PBMC preincubated for 2 hrs followed by anti-human IgM stimulation for 18 hrs by flow cytometric analysis; format: functional, tissue-based
Blood = experiment: Inhibition of mouse anti-human anti-IgD-stimulated CD69 cell surface expression in human whole blood preincubated for 2 hrs followed by anti-human anti-IgD stimulation for 18 hrs by flow cytometric analysis; format: functional, tissue-based
[7] = target: T1, Tyrosine-protein kinase BTK; experiment: Covalent inhibition of His-tagged human full length recombinant BTK expressed in baculovirus expression system incubated for 5 to 120 mins by Lanthascreen TR-FRET assay; details: time min 5-120, TDE = time-dependent effect
Homo sapiens = species on record: Homo sapiens; experiment: Selectivity index, ratio of IC50 for EGFR (unknown origin) expressed in baculovirus system to IC50 for human recombinant full length N-terminal His6-tagged BTK expressed in baculovirus infected Sf9 cells
[8] = Solubility of compound by turbidimetric assay; format: physicochemical

Chain of Epidermal growth factor receptor (P00533 whole entry): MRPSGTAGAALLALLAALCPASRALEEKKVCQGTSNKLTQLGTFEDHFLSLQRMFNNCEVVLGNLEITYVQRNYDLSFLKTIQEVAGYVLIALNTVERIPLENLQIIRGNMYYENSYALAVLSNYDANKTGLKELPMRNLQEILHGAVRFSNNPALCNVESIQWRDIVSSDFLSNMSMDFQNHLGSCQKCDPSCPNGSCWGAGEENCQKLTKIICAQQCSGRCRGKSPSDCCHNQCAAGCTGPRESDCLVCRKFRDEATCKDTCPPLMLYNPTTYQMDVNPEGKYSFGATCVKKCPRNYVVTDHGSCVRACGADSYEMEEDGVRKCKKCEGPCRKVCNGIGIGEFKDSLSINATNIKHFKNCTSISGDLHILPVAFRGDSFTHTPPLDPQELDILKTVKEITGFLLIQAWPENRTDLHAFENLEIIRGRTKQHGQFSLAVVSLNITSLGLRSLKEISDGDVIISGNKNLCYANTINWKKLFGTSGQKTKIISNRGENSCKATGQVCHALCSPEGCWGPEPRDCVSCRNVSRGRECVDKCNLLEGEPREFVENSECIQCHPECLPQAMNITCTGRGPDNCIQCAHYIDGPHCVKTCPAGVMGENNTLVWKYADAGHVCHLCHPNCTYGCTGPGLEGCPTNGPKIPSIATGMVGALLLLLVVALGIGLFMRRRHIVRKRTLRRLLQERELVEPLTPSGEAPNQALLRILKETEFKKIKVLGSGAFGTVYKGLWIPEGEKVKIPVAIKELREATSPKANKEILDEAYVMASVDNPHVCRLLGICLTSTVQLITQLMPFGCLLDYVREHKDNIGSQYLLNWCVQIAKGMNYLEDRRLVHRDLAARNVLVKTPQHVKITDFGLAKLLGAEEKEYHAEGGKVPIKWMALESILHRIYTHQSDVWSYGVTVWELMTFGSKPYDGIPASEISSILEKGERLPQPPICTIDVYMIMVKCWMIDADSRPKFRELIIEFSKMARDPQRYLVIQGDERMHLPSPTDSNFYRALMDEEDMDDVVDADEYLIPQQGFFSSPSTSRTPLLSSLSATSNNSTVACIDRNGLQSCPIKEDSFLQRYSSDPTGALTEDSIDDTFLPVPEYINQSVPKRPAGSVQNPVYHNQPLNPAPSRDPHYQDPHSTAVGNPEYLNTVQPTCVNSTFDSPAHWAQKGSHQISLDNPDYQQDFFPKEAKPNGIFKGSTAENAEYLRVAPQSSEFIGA
T1 sequence (Q06187 whole entry): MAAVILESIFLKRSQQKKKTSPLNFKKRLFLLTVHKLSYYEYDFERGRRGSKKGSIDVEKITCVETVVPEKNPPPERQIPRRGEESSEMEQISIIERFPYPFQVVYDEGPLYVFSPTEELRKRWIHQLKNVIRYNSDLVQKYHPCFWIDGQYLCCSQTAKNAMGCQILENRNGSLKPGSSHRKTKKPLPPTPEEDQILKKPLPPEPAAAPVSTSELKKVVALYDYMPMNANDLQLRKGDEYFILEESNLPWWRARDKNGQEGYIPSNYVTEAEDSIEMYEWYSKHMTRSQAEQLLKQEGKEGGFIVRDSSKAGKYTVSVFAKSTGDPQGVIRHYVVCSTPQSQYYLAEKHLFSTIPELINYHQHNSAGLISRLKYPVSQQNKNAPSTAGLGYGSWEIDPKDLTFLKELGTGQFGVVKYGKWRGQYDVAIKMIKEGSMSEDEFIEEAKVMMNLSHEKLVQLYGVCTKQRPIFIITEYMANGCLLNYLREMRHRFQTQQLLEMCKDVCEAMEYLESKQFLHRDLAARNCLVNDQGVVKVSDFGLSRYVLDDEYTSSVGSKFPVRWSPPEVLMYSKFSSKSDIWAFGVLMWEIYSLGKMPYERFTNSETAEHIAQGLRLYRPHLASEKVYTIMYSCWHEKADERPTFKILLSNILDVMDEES
Chain of Tyrosine-protein kinase Blk (P51451 whole entry, the tested form may be a part): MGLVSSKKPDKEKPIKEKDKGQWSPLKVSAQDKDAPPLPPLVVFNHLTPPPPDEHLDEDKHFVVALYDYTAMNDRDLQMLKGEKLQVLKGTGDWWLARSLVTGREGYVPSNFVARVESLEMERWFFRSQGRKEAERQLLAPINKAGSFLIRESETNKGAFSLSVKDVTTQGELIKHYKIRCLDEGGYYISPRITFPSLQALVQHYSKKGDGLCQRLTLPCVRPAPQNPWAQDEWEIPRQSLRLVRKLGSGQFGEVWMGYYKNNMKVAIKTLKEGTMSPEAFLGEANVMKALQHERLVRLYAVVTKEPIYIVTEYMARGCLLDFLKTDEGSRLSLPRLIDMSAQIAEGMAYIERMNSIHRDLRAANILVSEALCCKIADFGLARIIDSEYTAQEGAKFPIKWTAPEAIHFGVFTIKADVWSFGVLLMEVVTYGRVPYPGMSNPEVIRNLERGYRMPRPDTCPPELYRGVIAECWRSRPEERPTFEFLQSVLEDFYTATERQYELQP

| SMILES | IC50 [1] [nM] | EC50 [2] [nM] | IC50 [3] [nM] | further results |
| --- | --- | --- | --- | --- |
| COCC#CC(=O)Nc1ccc2nccc(Oc3ccc(C(=O)Nc4ccccn4)cc3)c2c1 | 0.15 | 7 | 16 | – |
| CC#CC(=O)N1CCC[C@H]1c1nc(-c2ccc(C(=O)Nc3ccccn3)cc2)c2c(N)nccn12 [ACALABRUTINIB] | – | – | – | ED50 [4]: 1.3 mg/kg; IC50 [5]: > 1000 nM |
| CC#CC(=O)Nc1cc2c(Oc3ccc(C(=O)Nc4ccccn4)cc3)ccnc2cc1OC | 1.5 | 29 | > 1000 | EC50 [6]: 9.7 nM; EC50 (Blood): 66 nM |
| O=C(C#CCN1CCOCC1)Nc1ccc2nccc(Oc3ccc(C(=O)Nc4ccccn4)cc3)c2c1 | 0.26 | 12 | 13 | – |
| C=CC(=O)Nc1ccc2ncnc(Oc3ccc(C(=O)Nc4ccccn4)cc3)c2c1 | – | – | 11 | EC50 [1]: 7.2 nM; inhibition [7]: Tde |
| CN(C)C/C=C/C(=O)Nc1ccc2nccc(Oc3ccc(C(=O)Nc4ccccn4)cc3)c2c1 | 7.2 | 89 | 275 | – |
| O=C(C#CCO)Nc1ccc2nccc(Oc3ccc(C(=O)Nc4ccccn4)cc3)c2c1 | 0.33 | 28 | 6.3 | Ratio IC50 (Homo sapiens): 19; solubility kinetic [8]: < 1 µM |
| C=CC(=O)Nc1ccc2ncnc(Nc3ccc(C(=O)Nc4ccccn4)cc3)c2c1 | – | – | 3.8 | EC50 [1]: 18 nM |
| C=CC(=O)Nc1ccc2nccc(Oc3ccc(C(=O)Nc4ccccn4)cc3)c2c1 | 3.5 | 112 | 159 | – |
| O=C(C#CCCN1CCOCC1)Nc1ccc2nccc(Oc3ccc(C(=O)Nc4ccccn4)cc3)c2c1 | 0.8 | 25 | 81 | – |
| CC#CC(=O)Nc1cc2c(Oc3ccc(C(=O)Nc4ccccn4)cc3)ccnc2cc1OC1CCOCC1 | 3.8 | 152 | > 1000 | – |
| COc1cc2nccc(Oc3ccc(C(=O)Nc4ccccn4)cc3)c2cc1NC(=O)C#CCN1CCOCC1 | 0.47 | 2.1 | 24 | EC50 [6]: 1.5 nM; EC50 (Blood): 12 nM |
| COCC#CC(=O)Nc1cc2c(Oc3ccc(C(=O)Nc4ccccn4)cc3)ccnc2cc1OC | 0.96 | 12 | 12 | – |
| CCN1CCN(CC#CC(=O)Nc2ccc3nccc(Oc4ccc(C(=O)Nc5ccccn5)cc4)c3c2)CC1 | 2.5 | 18 | 55 | Ratio IC50 (Homo sapiens): 22 |
| CC#CC(=O)Nc1ccc2nccc(Oc3ccc(C(=O)Nc4ccccn4)cc3)c2c1 | 4.7 | 152 | > 1000 | – |
| CC#CC(=O)Nc1cc2c(Oc3ccc(C(=O)Nc4ccccn4)cc3)ccnc2cc1OCCCN1CCN(C)CC1 | 1 | 3.9 | 233 | EC50 [6]: 2.1 nM; EC50 (Blood): 35 nM |
